The target of data set [1] is T1, MmeI (Methylophilus methylotrophus, UniProt B2MU09).
T1 construct: gene mmeIRM; residues 156-906 modelled, endonuclease domain 1-155 disordered; purified as described previously
T1 sequence (B2MU09 1-919): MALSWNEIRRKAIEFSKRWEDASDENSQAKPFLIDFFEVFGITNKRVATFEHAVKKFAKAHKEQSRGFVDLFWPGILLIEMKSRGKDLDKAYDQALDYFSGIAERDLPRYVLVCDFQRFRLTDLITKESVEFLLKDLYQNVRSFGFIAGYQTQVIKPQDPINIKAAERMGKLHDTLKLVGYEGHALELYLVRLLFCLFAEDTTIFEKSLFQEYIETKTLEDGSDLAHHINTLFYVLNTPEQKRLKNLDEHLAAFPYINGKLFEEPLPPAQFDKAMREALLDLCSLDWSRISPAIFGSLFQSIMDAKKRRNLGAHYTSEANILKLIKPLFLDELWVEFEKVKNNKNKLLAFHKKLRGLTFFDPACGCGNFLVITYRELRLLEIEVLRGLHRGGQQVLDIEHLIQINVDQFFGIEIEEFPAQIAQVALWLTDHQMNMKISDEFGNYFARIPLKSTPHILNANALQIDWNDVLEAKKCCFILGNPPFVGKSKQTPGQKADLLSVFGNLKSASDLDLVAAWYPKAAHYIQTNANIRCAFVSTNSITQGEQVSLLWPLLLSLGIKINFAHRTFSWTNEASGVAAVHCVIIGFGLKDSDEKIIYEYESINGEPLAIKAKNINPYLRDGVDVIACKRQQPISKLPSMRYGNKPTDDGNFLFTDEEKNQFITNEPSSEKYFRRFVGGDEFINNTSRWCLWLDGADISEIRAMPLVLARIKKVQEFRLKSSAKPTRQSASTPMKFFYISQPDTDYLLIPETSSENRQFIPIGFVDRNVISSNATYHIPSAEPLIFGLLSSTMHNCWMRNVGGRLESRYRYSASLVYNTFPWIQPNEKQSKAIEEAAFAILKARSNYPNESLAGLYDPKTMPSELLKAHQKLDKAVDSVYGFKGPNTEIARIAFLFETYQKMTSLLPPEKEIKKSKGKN
The data set can be described thus: X-ray crystal structure, […] Å (SAD). Type of data set: binding. The following applies: ternary complex with 29-mer DNA containing TCCGAC; AdoMet site of methyltransferase domain; pH 7.5, 293 K; calcium ions in model.

The target of data set [2] is T2, MmeI (Methylophilus methylotrophus, UniProt B2MU09 1-919).
T2 sequence: T1 sequence (B2MU09 1-919)
Nature of the data set: X-ray crystallography (2.6 A); Sinefungin; Ca2+ in model; Crystallization: 20% PEG 4K, 0.1 M Hepes pH 7.5, 0.1 M (NH4)2SO4, 293 K, with Sinefungin; no solution binding assay. Conditions: protein: recombinant; blunt.

`Nc1ncnc2c1ncn2[C@@H]1O[C@H](C[C@@H](N)CC[C@H](N)C(=O)O)[C@@H](O)[C@H]1O` [Sinefungin]: the “X-ray crystal structure, 2.6 Å (SAD)” value on MmeI [1] is recorded as “The SAM analog Sinefungin is tightly bound within the MTase domain via extensive hydrogen bonding”.

B1: 29-mer MmeI site duplex, 5-bromouracil substituted (dsDNA)
DNA 1: TATCCGACAUAACGCUAGUCACUAGCUUC
DNA 2: GAAGCUAGUGACUAGCGUTAUGTCGGATA
modifications: U = 5-bromouracil (replaces several thymines outside the recognition site) in both strands
Turning to B1, in the data set with MmeI [2], the binding result is listed as “binds”.

(Values after article PMC4833311, “Structure of Type IIL Restriction-Modification Enzyme MmeI in Complex with DNA Has Implications for Engineering New Specificities” (PLoS Biology, 2016).)
